# In US20120083522A1, “MODULATION OF INFLAMMATORY RESPONSES BY FACTOR XI” (Isis Pharmaceuitcals, inc., priority 2009, published 2012):
# System: human Factor XI mRNA
# Test: Dose-dependent inhibition in HepG2 cells, lipofectin (Example 4)
# Format: cell-based
# Details: 9.375 nM, 16 hours
# Method in brief: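 Read-out was percent inhibition of Factor XI mRNA relative to untreated controls, by qRT-PCR (RTS 2966) adjusted for RIBOGREEN-measured total RNA. Cells received antisense oligonucleotide at 9.375 to 75 nM (four levels) via lipofectin. Treatment lasted approximately 16 hours, with plating at 10,000 cells per well.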
row,Substance,"percent inhibition of Factor XI mRNA, relative to untreated control cells"
1,"416858 (antisense ACGGCATTGGTGCACAGTTT; 5-10-5 gapmer, wing sugar chemistry not given here, further chemistry not given here) [compound 416858]",0%
2,"416825 (antisense GCCCTTCATGTCTAGGTCCA; 5-10-5 gapmer, wing sugar chemistry not given here, further chemistry not given here) [compound 416825]",23%

# Same assay, conditions: 18.75 nM, 16 hours
row,Substance,"percent inhibition of Factor XI mRNA, relative to untreated control cells"
1,"416858 (antisense ACGGCATTGGTGCACAGTTT; 5-10-5 gapmer, wing sugar chemistry not given here, further chemistry not given here) [compound 416858]",28%
2,"416825 (antisense GCCCTTCATGTCTAGGTCCA; 5-10-5 gapmer, wing sugar chemistry not given here, further chemistry not given here) [compound 416825]",52%

# Same assay, conditions: 37.5 nM, 16 hours
row,Substance,"percent inhibition of Factor XI mRNA, relative to untreated control cells"
1,"416858 (antisense ACGGCATTGGTGCACAGTTT; 5-10-5 gapmer, wing sugar chemistry not given here, further chemistry not given here) [compound 416858]",54%
2,"416825 (antisense GCCCTTCATGTCTAGGTCCA; 5-10-5 gapmer, wing sugar chemistry not given here, further chemistry not given here) [compound 416825]",73%

# Same assay, conditions: 75 nM, 16 hours
row,Substance,"percent inhibition of Factor XI mRNA, relative to untreated control cells"
1,"416858 (antisense ACGGCATTGGTGCACAGTTT; 5-10-5 gapmer, wing sugar chemistry not given here, further chemistry not given here) [compound 416858]",82%
2,"416825 (antisense GCCCTTCATGTCTAGGTCCA; 5-10-5 gapmer, wing sugar chemistry not given here, further chemistry not given here) [compound 416825]",92%

# System: human Factor XI mRNA
# Test: Dose-dependent inhibition in HepG2 cells, electroporation (Example 4)
# Format: cell-based
# Details: 0.7 μM, 16 hours
# Method in brief: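 HepG2 cells electroporated with 0.7, 2.2, 6.7 or 20 μM antisense gapmer and harvested after ~16 h. Factor XI mRNA quantified by qRT-PCR (primer probe set RTS 2966), normalised to total RNA (RIBOGREEN). Reported as percent inhibition versus untreated control cells.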
row,Substance,"percent inhibition of Factor XI mRNA, relative to untreated control cells"
1,"416858 (antisense ACGGCATTGGTGCACAGTTT; 5-10-5 gapmer, wing sugar chemistry not given here, further chemistry not given here) [compound 416858]",5%
2,"416825 (antisense GCCCTTCATGTCTAGGTCCA; 5-10-5 gapmer, wing sugar chemistry not given here, further chemistry not given here) [compound 416825]",27%

# Same assay, conditions: 2.2 μM, 16 hours
row,Substance,"percent inhibition of Factor XI mRNA, relative to untreated control cells"
1,"416858 (antisense ACGGCATTGGTGCACAGTTT; 5-10-5 gapmer, wing sugar chemistry not given here, further chemistry not given here) [compound 416858]",20%
2,"416825 (antisense GCCCTTCATGTCTAGGTCCA; 5-10-5 gapmer, wing sugar chemistry not given here, further chemistry not given here) [compound 416825]",74%

# Same assay, conditions: 6.7 μM, 16 hours
row,Substance,"percent inhibition of Factor XI mRNA, relative to untreated control cells"
1,"416858 (antisense ACGGCATTGGTGCACAGTTT; 5-10-5 gapmer, wing sugar chemistry not given here, further chemistry not given here) [compound 416858]",56%
2,"416825 (antisense GCCCTTCATGTCTAGGTCCA; 5-10-5 gapmer, wing sugar chemistry not given here, further chemistry not given here) [compound 416825]",92%

# Same assay, conditions: 20 μM, 16 hours
row,Substance,"percent inhibition of Factor XI mRNA, relative to untreated control cells"
1,"416858 (antisense ACGGCATTGGTGCACAGTTT; 5-10-5 gapmer, wing sugar chemistry not given here, further chemistry not given here) [compound 416858]",86%
2,"416825 (antisense GCCCTTCATGTCTAGGTCCA; 5-10-5 gapmer, wing sugar chemistry not given here, further chemistry not given here) [compound 416825]",98%

# System: human Factor XI mRNA
# Test: Dose-dependent inhibition in HepG2 cells, lipofectin (Example 5)
# Format: cell-based
# Details: 2.34 nM, 16 hours
# Method in brief: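 HepG2 cells (10,000/well) were lipofectin-transfected with antisense oligonucleotide at 2.34–75 nM for about 16 h. Factor XI mRNA was measured by qRT-PCR (primer-probe RTS 2966), normalised to RIBOGREEN total RNA, and expressed as percent inhibition versus untreated cells.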
row,Substance,"percent inhibition of human Factor XI mRNA, relative to untreated control cells"
1,"416858 (antisense ACGGCATTGGTGCACAGTTT; 5-10-5 gapmer, wing sugar chemistry not given here, further chemistry not given here) [compound 416858]",11%
2,"416825 (antisense GCCCTTCATGTCTAGGTCCA; 5-10-5 gapmer, wing sugar chemistry not given here, further chemistry not given here) [compound 416825]",4%

# Same assay, conditions: 4.69 nM, 16 hours
row,Substance,"percent inhibition of human Factor XI mRNA, relative to untreated control cells"
1,"416858 (antisense ACGGCATTGGTGCACAGTTT; 5-10-5 gapmer, wing sugar chemistry not given here, further chemistry not given here) [compound 416858]",35%
2,"416825 (antisense GCCCTTCATGTCTAGGTCCA; 5-10-5 gapmer, wing sugar chemistry not given here, further chemistry not given here) [compound 416825]",22%

# Same assay, conditions: 9.375 nM, 16 hours
row,Substance,"percent inhibition of human Factor XI mRNA, relative to untreated control cells"
1,"416858 (antisense ACGGCATTGGTGCACAGTTT; 5-10-5 gapmer, wing sugar chemistry not given here, further chemistry not given here) [compound 416858]",46%
2,"416825 (antisense GCCCTTCATGTCTAGGTCCA; 5-10-5 gapmer, wing sugar chemistry not given here, further chemistry not given here) [compound 416825]",39%

# Same assay, conditions: 18.75 nM, 16 hours
row,Substance,"percent inhibition of human Factor XI mRNA, relative to untreated control cells"
1,"416858 (antisense ACGGCATTGGTGCACAGTTT; 5-10-5 gapmer, wing sugar chemistry not given here, further chemistry not given here) [compound 416858]",61%
2,"416825 (antisense GCCCTTCATGTCTAGGTCCA; 5-10-5 gapmer, wing sugar chemistry not given here, further chemistry not given here) [compound 416825]",57%

# Same assay, conditions: 37.5 nM, 16 hours
row,Substance,"percent inhibition of human Factor XI mRNA, relative to untreated control cells"
1,"416858 (antisense ACGGCATTGGTGCACAGTTT; 5-10-5 gapmer, wing sugar chemistry not given here, further chemistry not given here) [compound 416858]",75%
2,"416825 (antisense GCCCTTCATGTCTAGGTCCA; 5-10-5 gapmer, wing sugar chemistry not given here, further chemistry not given here) [compound 416825]",79%

# Same assay, conditions: 75 nM, 16 hours
row,Substance,"percent inhibition of human Factor XI mRNA, relative to untreated control cells"
1,"416858 (antisense ACGGCATTGGTGCACAGTTT; 5-10-5 gapmer, wing sugar chemistry not given here, further chemistry not given here) [compound 416858]",77%
2,"416825 (antisense GCCCTTCATGTCTAGGTCCA; 5-10-5 gapmer, wing sugar chemistry not given here, further chemistry not given here) [compound 416825]",89%

# System: human Factor XI mRNA
# Test: Dose-dependent inhibition in HepG2 cells, electroporation (Example 5)
# Format: cell-based
# Details: 625 nM, approx. 16 h, relative to untreated control cells
# Method in brief: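 20,000 cells per well electroporated with 625–20,000 nM antisense oligonucleotide; RNA isolated after ~16 h. Factor XI mRNA by quantitative real-time PCR (primer probe set RTS 2966), normalised to RIBOGREEN total RNA; percent inhibition relative to untreated control cells.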
row,Substance,percent inhibition of human Factor XI mRNA
1,"416858 (antisense ACGGCATTGGTGCACAGTTT; 5-10-5 gapmer, wing sugar chemistry not given here, further chemistry not given here) [compound 416858]",65%
2,"416825 (antisense GCCCTTCATGTCTAGGTCCA; 5-10-5 gapmer, wing sugar chemistry not given here, further chemistry not given here) [compound 416825]",69%

# Same assay, conditions: 1250 nM, approx. 16 h, relative to untreated control cells
row,Substance,percent inhibition of human Factor XI mRNA
1,"416858 (antisense ACGGCATTGGTGCACAGTTT; 5-10-5 gapmer, wing sugar chemistry not given here, further chemistry not given here) [compound 416858]",77%
2,"416825 (antisense GCCCTTCATGTCTAGGTCCA; 5-10-5 gapmer, wing sugar chemistry not given here, further chemistry not given here) [compound 416825]",84%

# Same assay, conditions: 2500 nM, approx. 16 h, relative to untreated control cells
row,Substance,percent inhibition of human Factor XI mRNA
1,"416858 (antisense ACGGCATTGGTGCACAGTTT; 5-10-5 gapmer, wing sugar chemistry not given here, further chemistry not given here) [compound 416858]",87%
2,"416825 (antisense GCCCTTCATGTCTAGGTCCA; 5-10-5 gapmer, wing sugar chemistry not given here, further chemistry not given here) [compound 416825]",91%

# Same assay, conditions: 5000 nM, approx. 16 h, relative to untreated control cells
row,Substance,percent inhibition of human Factor XI mRNA
1,"416858 (antisense ACGGCATTGGTGCACAGTTT; 5-10-5 gapmer, wing sugar chemistry not given here, further chemistry not given here) [compound 416858]",89%
2,"416825 (antisense GCCCTTCATGTCTAGGTCCA; 5-10-5 gapmer, wing sugar chemistry not given here, further chemistry not given here) [compound 416825]",94%

# Same assay, conditions: 10000 nM, approx. 16 h, relative to untreated control cells
row,Substance,percent inhibition of human Factor XI mRNA
1,"416858 (antisense ACGGCATTGGTGCACAGTTT; 5-10-5 gapmer, wing sugar chemistry not given here, further chemistry not given here) [compound 416858]",93%
2,"416825 (antisense GCCCTTCATGTCTAGGTCCA; 5-10-5 gapmer, wing sugar chemistry not given here, further chemistry not given here) [compound 416825]",96%

# Same assay, conditions: 20000 nM, approx. 16 h, relative to untreated control cells
row,Substance,percent inhibition of human Factor XI mRNA
1,"416858 (antisense ACGGCATTGGTGCACAGTTT; 5-10-5 gapmer, wing sugar chemistry not given here, further chemistry not given here) [compound 416858]",93%
2,"416825 (antisense GCCCTTCATGTCTAGGTCCA; 5-10-5 gapmer, wing sugar chemistry not given here, further chemistry not given here) [compound 416825]",97%

# System: human Factor XI mRNA
# Test: Antisense inhibition in HepG2 cells by microwalk gapmers, 8,000 nM, electroporation (Example 14)
# Format: cell-based
# Details: HepG2 cells, 8,000 nM
# Method in brief: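 Percent reduction of Factor XI transcript, relative to untreated controls, by real-time PCR with RIBOGREEN normalisation. Readout taken about 24 h after electroporating HepG2 cells with 8,000 nM oligonucleotide. Gapmers are 5-10-5, 5-8-5 or 6-8-6 MOE wings, phosphorothioate backbone.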
row,Substance,Percent inhibition of human Factor XI mRNA levels
1,"416858 (antisense ACGGCATTGGTGCACAGTTT; 5-10-5 gapmer, wing sugar chemistry not given here, further chemistry not given here) [compound 416858]",90%
2,"416825 (antisense GCCCTTCATGTCTAGGTCCA; 5-10-5 gapmer, wing sugar chemistry not given here, further chemistry not given here) [compound 416825]",90%

# System: not listed separately
# Test: Tolerability in Sprague-Dawley rats: kidney function (Example 19)
# Format: in vivo
# Details: Sprague Dawley rats, after 50 mg/kg s.c. twice per week for 6 weeks
# From the text: Urine samples were taken before the start of treatment.
row,Substance,"urine protein/creatinine ratio, After"
1,"416858 (antisense ACGGCATTGGTGCACAGTTT; 5-10-5 gapmer, wing sugar chemistry not given here, further chemistry not given here) [compound 416858]",4.4
2,"416825 (antisense GCCCTTCATGTCTAGGTCCA; 5-10-5 gapmer, wing sugar chemistry not given here, further chemistry not given here) [compound 416825]",5.4

# Same assay, conditions: Sprague Dawley rats, before antisense oligonucleotide treatment
row,Substance,"urine protein/creatinine ratio, Before"
1,"416858 (antisense ACGGCATTGGTGCACAGTTT; 5-10-5 gapmer, wing sugar chemistry not given here, further chemistry not given here) [compound 416858]",0.9
2,"416825 (antisense GCCCTTCATGTCTAGGTCCA; 5-10-5 gapmer, wing sugar chemistry not given here, further chemistry not given here) [compound 416825]",1.1
